According to patent US11634447B2 (priority 2012, dated 2023):

System: bacterial strain LF82 binding to the glycoprotein BSA-(Mannose)3
Assay: Bacterial Binding Assay (BBA)
Format: cell-based, Escherichia coli
Settings: read-out: Bacterial Binding Assay IC50, LF82/Luciferase strain binding to BSA-(Man)3 coated plates, luminescence
From the text: The purpose of the Bacterial Binding Assay (BBA) is to determine the inhibition activity of
selective FimH antagonists on the bacterial strain LF82 binding to the glycoprotein BSA-(Mannose)3.
Below is a list of the Materials used to run the BBA are described below. • 1. LB broth: Supplier: Gibco, #10855 • 2. D-PBS: Supplier: Wisent, #311-425-CL • 3. LB agar plates • 4. 96-well black plate (high binding): Supplier: Costar, #3925 • 5. TopSeal™-A adhesive sealing films; Supplier PerkinElmer, #6005185 • 6. Carbonate-bicarbonate buffer pH 9.6 tablets, Supplier: Medicago, #09-8922-24 • 7. Water, Supplier: Gibco, #15230-162 • 8. Bovine serum albumin (BSA): Supplier: Sigma, #A-7888 • 9. (Man)3-BSA (α1-3, α1-6 Mannotriose-BSA, 1 mg), V-Labs, #NGP1336, lot #HGDX37-169-1 • 10. Tween 20: Supplier: Sigma, #P9416 • 11. Bright-Glo Luciferase Assay System: Supplier: Promega, #E2610 • 12. LF82/Luciferase strain: Invasive ability of an Escherichia coli strain isolated from the ileal mucosa of a patient with Crohn ? disease. Boudeau J, Glasser A L, Masseret E, Joly B, Darfeuille-Michaud A, Infect Immun. 1999, 67(9), 4499-509
Solutions and buffers used to run the BBA are described below. • 1. 0.04M carbonate-bicarbonate buffer (coating buffer) • 2. 40 μg/mL BSA-(Man)3: Dissolve 1 mg of (Man)3-BSA in 25 mL of water. • 3. 4000 μg/mL BSA • 4. 40 μg/mL BSA • 5. 1 μg/mL BSA-(Man)3: 150 μL of 40 μg/mL BSA-(Man)3+5.85 mL of 40 μg/mL BSA • 6. 0.5 μg/mL BSA-(Man)3 in 0.02M carbonate-bicarbonate buffer. • 7. 20 μg/mL BSA in 0.02M carbonate-bicarbonate buffer • 8. Blocking buffer (2% BSA/DPBS): 1 g of BSA in 50 mL D-PBS • 9. 2× binding buffer (0.2% BSA/D-PBS): 5 mL of blocking buffer+45 mL D-PBS. • 10. Washing buffer (D-PBS/0.01% Tween 20): 10 μL of Tween 20 in 100 mL D-PBS. • 11. 1× Bright-Glo Luciferase substrate: Dilute 1:1 the Bright-Glo Luciferase Assay System with D-PBS The experimental protocol to run the BBA is described below.
Overnight culture of LF82/Luciferase strain: Into two Falcon 50 mL tubes, add 20 mL of LB+20 μL of 50 mg/mL Kanamycin and inoculate with a loop from glycerol stock of the LF82/Luciferase strain. Incubate overnight at 37° C. with no shaking.
Glycoprotein coating of 96-well plates: Add 100 μL/well of 0.5-2 μg/mL BSA-(Man)3. 20 μg/mL BSA is used as the control background. Seal plate using an adhesive sealing film and incubate overnight at room temperature. Wash the 96-well plate three times with 150 μL/well of D-PBS, add 170 μL/well of blocking solution and incubate 45 min (minimum) at room temperature.
Preparation of bacterial suspension: Mix the two cultures tubes (40 mL) and perform a 1:10 dilution in LB (900 μl LB+100 μl culture. Measure optical density (OD) of the bacterial cultures. OD1 ˜5×10^8 cells/mL. Centrifuge LF82 culture for 20 min at 3500 rpm at room temperature. Re-suspend bacterial pellet in D-PBS and centrifuge again for 20 min at 3500 rpm. Re-suspend bacterial pellet in D-PBS to obtain a bacterial concentration of 2×10^9 bacteria/mL. Dilute 1/10 in D-PBS to obtain a final bacterial concentration of 2×10^8 bacteria/mL (=107 bacteria/50 μL). Perform 1/10 serial dilutions in LB of each bacterial suspension, plate 10 μL of dilutions on LB agar plates (final dilutions of 10^−7) and incubate overnight at 37° C. and count CFUs to determine the actual bacteria density in the assay.
Bacterial binding assay: Add 147 μL 2× binding buffer to compound plate (containing 3 μL of compound). After blocking step is performed (at least 45 min), wash plates three times with 200 μL/well of D-PBS. With a 100 μL multichannel manual pipettor, add 50 µL/well of compound diluted in 2× binding buffer. With a 100 μL multichannel manual pipettor, add 50 μL/well of bacterial suspension. Agitate at slow speed for 1 min and incubate 40-75 min at room temperature. Wash 5 times with 150 μL/well of washing buffer and then once with D-PBS. Add 100 μL/well of 1× Bright-Glo Luciferase substrate. […]

Compound | IC50 [µM]
OC[C@H]1O[C@H](C#Cc2ccc3c(c2)[nH]c2cc(C#C[C@H]4O[C@H](CO)[C@@H](O)[C@H](O)[C@@H]4O)ccc23)[C@@H](O)[C@@H](O)[C@@H]1O [Compound 118, (2R,3S,4R,5S,6R)-2-(hydroxymethyl)-6-[2-[7-[2-[(2R,3S,4R,5S,6R)-3,4,5-trihydroxy-6-(hydroxymethyl)tetrahydropyran-2-yl]ethynyl]-9H-carbazol-2-yl]ethynyl]tetrahydropyran-3,4,5-triol] | 0.022
OC[C@H]1O[C@H](C#Cc2ccc(C#C[C@H]3O[C@H](CO)[C@@H](O)[C@H](O)[C@@H]3O)c(OC(F)(F)F)c2)[C@@H](O)[C@@H](O)[C@@H]1O [Compound 87, (2R,3S,4R,5S,6R)-2-(hydroxymethyl)-6-[2-[3-(trifluoromethoxy)-4-[2-[(2R,3S,4R,5S,6R)-3,4,5-trihydroxy-6-(hydroxymethyl)tetrahydropyran-2-yl]ethynyl]phenyl]ethynyl]tetrahydropyran-3,4,5-triol] | 0.017
CC1(O)CCC2(CC1)c1cc(C#C[C@H]3O[C@H](CO)[C@@H](O)[C@H](O)[C@@H]3O)ccc1-c1ccc(C#C[C@H]3O[C@H](CO)[C@@H](O)[C@H](O)[C@@H]3O)cc12 [Compound 204] | 0.0008
CCc1cc(C#C[C@H]2O[C@H](CO)[C@@H](O)[C@H](O)[C@@H]2O)ccc1C#C[C@H]1O[C@H](CO)[C@@H](O)[C@H](O)[C@@H]1O [Compound 98, (2R,3S,4R,5S,6R)-2-[2-[3-ethyl-4-[2-[(2R,3S,4R,5S,6R)-3,4,5-trihydroxy-6-(hydroxymethyl)tetrahydropyran-2-yl]ethynyl]phenyl]ethynyl]-6-(hydroxymethyl)tetrahydropyran-3,4,5-triol] | 0.012
OC[C@H]1O[C@H](C#Cc2cc(C#C[C@H]3O[C@H](CO)[C@@H](O)[C@H](O)[C@@H]3O)c3[nH]ncc3c2)[C@@H](O)[C@@H](O)[C@@H]1O [Compound 212, (2R,3S,4R,5S,6R)-2-(hydroxymethyl)-6-[2-[7-[2-[(2R,3S,4R,5S,6R)-3,4,5-trihydroxy-6-(hydroxymethyl)tetrahydropyran-2-yl]ethynyl]-1H-indazol-5-yl]ethynyl]tetrahydropyran-3,4,5-triol] | 0.0049
COc1cc(C#C[C@H]2O[C@H](CO)[C@@H](O)[C@H](O)[C@@H]2O)ccc1C#C[C@H]1O[C@H](CO)[C@@H](O)[C@H](O)[C@@H]1O [Compound 71] | 0.028
CN1CCN(C2c3cc(C#C[C@H]4O[C@H](CO)[C@@H](O)[C@H](O)[C@@H]4O)ccc3-c3ccc(C#C[C@H]4O[C@H](CO)[C@@H](O)[C@H](O)[C@@H]4O)cc32)CC1 [Compound 198, (2R,3S,4R,5S,6R)-2-(hydroxymethyl)-6-[2-[9-(4-methylpiperazin-1-yl)-7-[2-[(2R,3S,4R,5S,6R)-3,4,5-trihydroxy-6-(hydroxymethyl)tetrahydropyran-2-yl]ethynyl]-9H-fluoren-2-yl]ethynyl]tetrahydropyran-3,4,5-triol] | 0.024
Cc1cc(-c2ccc(-c3ccc([C@H]4O[C@H](CO)[C@@H](O)[C@H](O)[C@@H]4O)c(C)c3)nc2)ccc1[C@H]1O[C@H](CO)[C@@H](O)[C@H](O)[C@@H]1O [Compound 157, (2R,3S,4R,5S,6R)-2-(hydroxymethyl)-6-[2-methyl-4-[6-[3-methyl-4-[(2R,3S,4R,5S,6R)-3,4,5-trihydroxy-6-(hydroxymethyl)tetrahydropyran-2-yl]phenyl]-3-pyridyl]phenyl]tetrahydropyran-3,4,5-triol] | 0.01
OC[C@H]1O[C@H](C#Cc2ccc(C#C[C@H]3O[C@H](CO)[C@@H](O)[C@H](O)[C@@H]3O)c(Cl)c2Cl)[C@@H](O)[C@@H](O)[C@@H]1O [Compound 75] | 0.076
CC(C)c1cc(C#C[C@H]2O[C@H](CO)[C@@H](O)[C@H](O)[C@@H]2O)ccc1C#C[C@H]1O[C@H](CO)[C@@H](O)[C@H](O)[C@@H]1O [Compound 103, (2R,3S,4R,5S,6R)-2-(hydroxymethyl)-6-[2-[3-isopropyl-4-[2-[(2R,3S,4R,5S,6R)-3,4,5-trihydroxy-6-(hydroxymethyl)tetrahydropyran-2-yl]ethynyl]phenyl]ethynyl]tetrahydropyran-3,4,5-triol] | 0.0074
Cc1cc(-c2ccc(C#C[C@H]3O[C@H](CO)[C@@H](O)[C@H](O)[C@@H]3O)c(C)c2)ccc1C#C[C@H]1O[C@H](CO)[C@@H](O)[C@H](O)[C@@H]1O [Compound 121, (2R,3S,4R,5S,6R)-2-(hydroxymethyl)-6-[2-[2-methyl-4-[3-methyl-4-[2-[(2R,3S,4R,5S,6R)-3,4,5-trihydroxy-6-(hydroxymethyl)tetrahydropyran-2-yl]ethynyl]phenyl]phenyl]ethynyl]tetrahydropyran-3,4,5-triol] | 0.012
O=C1CC[C@@H](C(=O)c2c(C#C[C@H]3O[C@H](CO)[C@@H](O)[C@H](O)[C@@H]3O)ccc3c2C2(CCNCC2)c2cc(C#C[C@H]4O[C@H](CO)[C@@H](O)[C@H](O)[C@@H]4O)ccc2-3)N1 [Compound 244, (5S)-5-[2,7-bis[2-[(2R,3S,4R,5S,6R)-3,4,5-trihydroxy-6-(hydroxymethyl)tetrahydropyran-2-yl]ethynyl]spiro[fluorene-9,4piperidine]-1carbonyl]pyrrolidin-2-one] | 0.00024
OC[C@H]1O[C@H](C#Cc2ccc3c(c2)CCc2cc(C#C[C@H]4O[C@H](CO)[C@@H](O)[C@H](O)[C@@H]4O)ccc2-3)[C@@H](O)[C@@H](O)[C@@H]1O [Compound 117, (2R,3S,4R,5S,6R)-2-(hydroxymethyl)-6-[2-[7-[2-[(2R,3S,4R,5S,6R)-3,4,5-trihydroxy-6-(hydroxymethyl)tetrahydropyran-2-yl]ethynyl]-9,10-dihydrophenanthren-2-yl]ethynyl]tetrahydropyran-3,4,5-triol] | 0.023
Cc1cc(C#Cc2ccc([C@H]3O[C@H](CO)[C@@H](O)[C@H](O)[C@@H]3O)c(C)c2)ccc1[C@H]1O[C@H](CO)[C@@H](O)[C@H](O)[C@@H]1O [Compound 152, (2R,3S,4R,5S,6R)-2-(hydroxymethyl)-6-[2-methyl-4-[2-[3-methyl-4-[(2R,3S,4R,5S,6R)-3,4,5-trihydroxy-6-(hydroxymethyl)tetrahydropyran-2-yl]phenyl]ethynyl]phenyl]tetrahydropyran-3,4,5-triol] | 0.031
O=C(O)CCC1(CCO)c2cc(C#C[C@H]3O[C@H](CO)[C@@H](O)[C@H](O)[C@@H]3O)ccc2-c2ccc(C#C[C@H]3O[C@H](CO)[C@@H](O)[C@H](O)[C@@H]3O)cc21 [Compound 219, 3-[9-(2-hydroxyethyl)-2,7-bis[2-[(2R,3S,4R,5S,6R)-3,4,5-trihydroxy-6-(hydroxymethyl)tetrahydropyran-2-yl]ethynyl]fluoren-9-yl]propanoic acid] | 0.0038
